# Assay results: patent US9822113B2, “Tricyclic compounds and process for preparation thereof” (Council of Scientific & Industrial Research, priority 2013, dated 2017)
# Test system: Salmonella enterica strain AMC (ATCC #6539)
# Assay: Antibiotic assay: MIC by Promega Bac Titer-Glo microbial cell viability assay
# Format: cell-based
# Settings: 24 hours treatment, inoculum ~5×10^4 CFU/mL, Mueller Hinton broth
# Experimental: In a preferred embodiment, the novel a novel tricyclic compounds of formula (I) and formula (II) are evaluated for anti-microbial activity. The minimum inhibitory concentrations (MICs) is determined using the Promega Bac Titer-Glo microbial cell viability assay. The assays is carried out using Salmonella enterica strain AMC (ATCC #6539), Inocula of S. enterica prepared from 12-h broth cultures grown in Mueller Hinton broth and the suspensions were then adjusted to a turbidity of 0.5 McFarland. […] Bacterial cells were treated with hunanamycin analogs for 24 hours at ranges from 0.4 to 40 μg/mL and ciprofloxacin as a control ranging from 0.03 to 10 μg/mL. The OD600 measured using an Envision multi-modal plate reader (Perkin-Elmer, Inc.).
# The minimum inhibitory concentrations (MICs) were determined using the Promega Bac Titer-Glo microbial cell viability assay, which measures cell viability by quantitation of ATP present, an indicator of metabolic activity of cells. The assays were carried out using Salmonella enterica strain AMC (ATCC #6539), Inocula of S. enterica were prepared from 12-h broth cultures grown in Mueller Hinton broth and the suspensions were then adjusted to a turbidity of 0.5 McFarland. […] Bacterial cells were treated with hunanamycin analogs for 24 hours at ranges from 0.4 to 40 μg/mL and ciprofloxacin as a control ranging from 0.03 to 10 μg/mL. The OD600 was measured using an Envision multi-modal plate reader (Perkin-Elmer, Inc.). The antibiotic assays were performed in Prof. John B. MacMillan's lab, Department of Biochemistry, University of Texas Southwestern Medical Center at Dallas, USA.
row,SMILES,MIC [µg/mL]
1,"CC1(C)CCn2c(=O)n(Cc3cn(CCO)nn3)c3cccc1c32 [Compound 24, 1-((1-(2-hydroxyethyl)-1H-1,2,3-triazol-4-yl)methyl)-6,6-dimethyl-5,6-dihydro-4H-imidazo[4,5,1-ij]quinolin-2(1H)-one]",>16
2,"Cc1cc2c3c(c1C)C(C)(C)CCn3c(=O)c(=O)n2C[C@@H](O)[C@H](O)[C@H](O)CO [Compound 3, 7,7,8,9-tetramethyl-1-((2R,3S,4R)-2,3,4,5-tetrahydroxy-pentyl)-6,7-dihydro-1H,5H-pyrido[1,2,3-de]quinoxaline-2,3-dione]",8
3,"CC1(C)CCn2c(=O)c(=O)n(C[C@@H](O)[C@H](O)[C@H](O)CO)c3cccc1c32 [Compound 8, 7,7-dimethyl-1-((2R,3S,4R)-2,3,4,5-tetrahydroxypentyl)-6,7-dihydro-1H,5H-pyrido[1,2,3-de]quinoxaline-2,3-dione]",>16

# Same assay, conditions: Salmonella enterica, ATCC6539, 24 h, 24 hours treatment, inoculum ~5×10^4 CFU/mL, Mueller Hinton broth
row,SMILES,MIC [µg/mL]
1,"CC1(C)CCn2c(=O)n(Cc3cn(CCO)nn3)c3cccc1c32 [1-((1-(2-hydroxyethyl)-1H-1,2,3-triazol-4-yl)methyl)-6,6-dimethyl-5,6-dihydro-4H-imidazo[4,5,1-ij]quinolin-2(1H)-one]",8
2,"Cc1cc2c3c(c1C)C(C)(C)CCn3c(=O)c(=O)n2C[C@@H](O)[C@H](O)[C@H](O)CO [7,7,8,9-tetramethyl-1-((2R,3S,4R)-2,3,4,5-tetrahydroxy-pentyl)-6,7-dihydro-1H,5H-pyrido[1,2,3-de]quinoxaline-2,3-dione]",8
3,"Cc1cc2c3c(c1C)C(C)(C)CCn3c(=O)c(=O)n2C[C@H](O)[C@H](O)[C@H](O)CO (stereo in doubt) [Compound 2, 7,7,8,9-tetramethyl-1-((2S,3S,4R)-2,3,4,5-tetrahydroxypentyl)-6,7-dihydro-1H,5H-pyrido[1,2,3-de]quinoxaline-2,3-dione]",8
4,"Cc1cc2nc(OC[C@H](O)[C@H](O)[C@H](O)CO)c(=O)n3c2c(c1C)C(C)(C)CC3 [Compound 1, 7,7,8,9-tetramethyl-2-(((2S,3R,4R)-2,3,4,5-tetrahydroxy-pentyl)oxy)-6,7-dihydro-3H,5H-pyrido[1,2,3-de]quinoxalin-3-one]",8
5,"CC1(C)CCn2c(=O)c(=O)n(CC(O)CO)c3cccc1c32 (stereo not drawn) [Compound 9, 1-(2,3-dihydroxypropyl)-7,7-dimethyl-6,7-dihydro-1H,5H-pyrido[1,2,3-de]quinoxaline-2,3-dione]",8

# Same assay, conditions: Salmonella enterica, ATCC6539, 24 h, 24 hours treatment, inoculum ~5×10^4 CFU/mL, Mueller Hinton broth, read-out: MIC
row,SMILES,MIC [µg/mL]
1,"Cc1cc2c3c(c1C)C(C)(C)CCn3c(=O)c(=O)n2C[C@H](O)[C@H](O)[C@H](O)CO [Compound 2, 7,7,8,9-tetramethyl-1-((2S,3S,4R)-2,3,4,5-tetrahydroxypentyl)-6,7-dihydro-1H,5H-pyrido[1,2,3-de]quinoxaline-2,3-dione]",8
2,"CC1(C)CCn2c(=O)n(C[C@@H](O)[C@H](O)CO)c3cccc1c32 [Compound 26, 6,6-dimethyl-1-((2R,3R)-2,3,4-trihydroxybutyl)-5,6-dihydro-4H-imidazo[4,5,1-ij]quinolin-2(1H)-one]",> 16
3,"CC1(C)CCn2c(=O)c(OC[C@H](O)CO)nc3cccc1c32 [Compound 16, (R)-2-(2,3-dihydroxypropoxy)-7,7-dimethyl-6,7-dihydro-3H,5H-pyrido[1,2,3-de]quinoxalin-3-one]",> 16
4,"CCOC(=O)Cn1cc(Cn2c(=O)c(=O)n3c4c(cccc42)C(C)(C)CC3)nn1 [Compound 10, ethyl 2-(4-((7,7-dimethyl-2,3-dioxo-2,3,6,7-tetrahydro-1H,5H-pyrido[1,2,3-de]quinoxalin-1-yl)methyl)-1H-1,2,3-triazol-1-yl)acetate]",> 16
5,"CC1(C)CCn2c(=O)c(=O)n(C[C@H](O)[C@H](O)[C@H](O)CO)c3cccc1c32 [Compound 7, 7,7-dimethyl-1-((2S,3S,4R)-2,3,4,5-tetrahydroxypentyl)-6,7-dihydro-1H,5H-pyrido[1,2,3-de]quinoxaline-2,3-dione]",> 16
6,"CCOC(=O)Cn1cc(Cn2c(=O)n3c4c(cccc42)C(C)(C)CC3)nn1 [Compound 24b, Ethyl 2-(4-((6,6-dimethyl-2-oxo-5,6-dihydro-4H-imidazo[4,5,1-ij]quinolin-1(2H)-yl)methyl)-1H-1,2,3-triazol-1-yl)acetate]",8
7,"CC1(C)CCn2c(=O)n(CC(O)CO)c3cccc1c32 (stereo not drawn) [Compound 23, 1-(2,3-dihydroxypropyl)-6,6-dimethyl-5,6-dihydro-4H-imidazo[4,5,1-ij]quinolin-2(1H)-one]",> 16
8,"Cc1cc2c3c(c1C)C(C)(C)CCn3c(=O)c(=O)n2CC(O)C(O)C(O)CO (stereo not drawn) [Compound 5, 7,7,8,9-tetramethyl-1-(2,3,4,5-tetrahydroxypentyl)-6,7-dihydro-1H,5H-pyrido[1,2,3-de]quinoxaline-2,3-dione]",4
9,"CC1(C)CCn2c(=O)c(OC[C@H](O)[C@@H](O)CO)nc3cccc1c32 [Compound 13, 7,7-dimethyl-2-((2S,3S)-2,3,4-trihydroxybutoxy)-6,7-dihydro-3H,5H-pyrido[1,2,3-de]quinoxalin-3-one]",16
10,"COC1O[C@H](Cn2c(=O)n3c4c(cccc42)C(C)(C)CC3)[C@@H](O)[C@H]1O (stereo partly drawn) [Compound 25, 1-(((2R,3S,4R)-3,4-dihydroxy-5-methoxytetrahydrofuran-2-yl)methyl)-6,6-dimethyl-5,6-dihydro-4H-imidazo[4,5,1-ij]quinolin-2(1H)-one]",2
11,"CC1(C)CCn2c(=O)c(=O)n(CC(O)C(C)(C)O)c3cccc1c32 (stereo not drawn) [Compound 15, 1-(2,3-dihydroxy-3-methylbutyl)-7,7-dimethyl-6,7-dihydro-1H,5H-pyrido[1,2,3-de]quinoxaline-2,3-dione]",> 16
12,"CC1(C)CCn2c(=O)c(OC[C@H](O)[C@H](O)[C@H](O)CO)nc3cccc1c32 [Compound 6, 7,7-dimethyl-2-(((2S,3R,4R)-2,3,4,5-tetrahydroxypentyl)oxy)-6,7-dihydro-3H,5H-pyrido[1,2,3-de]quinoxalin-3-one]",> 16
13,"COC1O[C@H](Cn2c(=O)c(=O)n3c4c(cccc42)C(C)(C)CC3)[C@@H](O)[C@H]1O (stereo partly drawn) [Compound 11, 1-(((2R,3S,4R)-3,4-dihydroxy-5-methoxytetrahydrofuran-2-yl)methyl)-7,7-dimethyl-6,7-dihydro-1H,5H-pyrido[1,2,3-de]quinoxaline-2,3-dione]",> 16
14,"CC(O)C(O)Cn1c(=O)c(=O)n2c3c(cccc31)C(C)(C)CC2 (stereo not drawn) [Compound 14, 1-(2,3-dihydroxybutyl)-7,7-dimethyl-6,7-dihydro-1H,5H-pyrido[1,2,3-de]quinoxaline-2,3-dione]",> 16
15,"CC1(C)CCn2c(=O)c(=O)n(C[C@@H](O)[C@H](O)CO)c3cccc1c32 [Compound 12, 7,7-dimethyl-1-((2R,3R)-2,3,4-trihydroxybutyl)-6,7-dihydro-1H,5H-pyrido[1,2,3-de]quinoxaline-2,3-dione]",> 16
16,"CC1(C)CCn2c(=O)n(C[C@H](O)[C@H](O)[C@H](O)CO)c3cccc1c32 [Compound 21, 6,6-dimethyl-1-((2S,3S,4R)-2,3,4,5-tetrahydroxypentyl)-5,6-dihydro-4H-imidazo[4,5,1-ij]quinolin-2(1H)-one]",4
17,"Cc1cc2c3c(c1C)C(C)(C)CCn3c(=O)c(=O)n2CC(O)CO (stereo not drawn) [Compound 4, 1-(2,3-dihydroxypropyl)-7,7,8,9-tetramethyl-6,7-dihydro-1H,5H-pyrido[1,2,3-de]quinoxaline-2,3-dione]",> 16
18,"CC1(C)CCn2c(=O)c(=O)n(C[C@@H](O)[C@H](O)[C@H](O)CO)c3cccc1c32 [Compound 8, 7,7-dimethyl-1-((2R,3S,4R)-2,3,4,5-tetrahydroxypentyl)-6,7-dihydro-1H,5H-pyrido[1,2,3-de]quinoxaline-2,3-dione]",> 16

# Test system: Salmonella enterica
# Assay: not given
# Settings: against the bacterial pathogen Salmonella enterica; literature value; cited from earlier work
row,SMILES,minimum inhibitory concentration (MIC) [µM]
1,"Cc1cc2c3c(c1C)C(C)(C)CCn3c(=O)c(=O)n2C[C@H](O)[C@H](O)[C@H](O)CO (stereo in doubt) [Compound 2, 7,7,8,9-tetramethyl-1-((2S,3S,4R)-2,3,4,5-tetrahydroxypentyl)-6,7-dihydro-1H,5H-pyrido[1,2,3-de]quinoxaline-2,3-dione]",12.4
